Experimental data as given in patent US20090264415A2 (priority 2004, published 2009).
Where two headings read alike, the source gives them in different places.

System: peripheral blood mononuclear cells (PBMC) stimulated with allogeneic PBMC or EBV-transformed human B cells (RPMI1788)
Test: Mixed lymphocyte reaction (MLR) assay
Type: cell-based
Details: Homo sapiens, RPMI-1788
In short: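 Compounds, held as 10 mM DMSO stocks and diluted in culture medium, were added to PBMC stimulated by 30 Gy-irradiated allogeneic PBMC or RPMI1788 cells. Proliferation was read as [3H]-thymidine uptake (1 μCi, final 16 h) after 5 days at 37° C. Inhibition was derived from cpm.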

[1] = MLR assay of example 319, read-out: MLR IC50
[2] = 50% suppression of the MLR, [3H]-thymidine incorporation, read-out: MLR

Compound | IC50 [1] | IC50 [2]
Nc1nc(N2CCN(C(=O)C(N)Cc3ccc(Cl)cc3)CC2)c2nc(-c3ccc(F)cc3)ccc2n1 (stereo in doubt) [Example 488, (S)-2-amino-4-{4-[3-(4-chlorophenyl)-2-aminopropionyl]piperazin-1-yl}-6-(4-fluorophenyl)-pyrido[3,2-d]pyrimidine] | 4300 nM | 
Nc1nc(N2CCN(C(=O)C3CCc4ccccc4O3)CC2)c2nc(-c3ccc(F)cc3)ccc2n1 (stereo not drawn) [Example 524, [4-(2-amino-6-(4-fluorophenyl)pyrido[3,2-d]pyrimidin-4-yl)piperazin-1-yl]chroman-2-ylmethanone] | 225 nM | 
CC(C)(C)OC(=O)N1C[C@@H]2C[C@H]1CN2c1nc(N)nc2ccc(-c3ccc(F)cc3)nc12 [Example 483, (S,S)-5-[2-amino-6-(4-fluorophenyl)-pyrido[3,2-d]pyrimidin-4-yl]-2,5-diaza-bicyclo[2.2.1]heptane-2-carboxylic acid tert-butyl ester] | 6100 nM | 
Nc1nc(N2CCOCC2)c2nc(Cl)ccc2n1 [Example 230, 2-amino-6-chloro-4-morpholino-pyrido[3,2-d]pyrimidine] |  | > 10000 nM
Nc1nc(N2CCN(C(=O)OCc3ccccc3)CC2)c2nc(-c3ccc(F)cc3)ccc2n1 [Example 458, 2-amino-4-[4-(benzyloxycarbonyl)-piperazin-1-yl]-6-(4-fluorophenyl)-pyrido[3,2-d]pyrimidine] | 700 nM | 
CNC(=O)N1CCN(c2nc(N)nc3ccc(-c4ccc(F)cc4)nc23)CC1 [Example 452, 2-amino-4-[4-(N-methylcarbamoyl)-piperazin-1-yl]-6-(4-fluorophenyl)-pyrido[3,2-d]pyrimidine] | 400 nM | 
Nc1nc(N2CCN(C(=O)COc3cccc(Cl)c3)CC2)c2nc(-c3ccc(F)cc3)ccc2n1 [Example 385, 2-amino-4-[4-(3-chlorophenoxyacetyl)piperazin-1-yl]-6-(4-fluorophenyl)-pyrido[3,2-d]pyrimidine] | 90 nM | 
COc1cc(-c2ccc3nc(N)nc(N4CCN(C(=O)COc5ccc(Cl)cc5)CC4)c3n2)ccc1N [Example 514, 2-amino-4-[N-(4-chlorophenoxyacetyl)-piperazin-1-yl]-6-(3-methoxy-4-amino-phenyl)-pyrido(3,2-d)pyrimidine] | 71 nM | 
N#Cc1ccc(-c2ccc3nc(N)nc(N4CCN(C(=O)COc5ccc(Cl)cc5)CC4)c3n2)cc1 [Example 400, 2-amino-4-[4-(4-chlorophenoxyacetyl)piperazin-1-yl]-6-(4-cyanophenyl)pyrido-[3,2-d]pyrimidine] | 50 nM | 
Nc1nc(N2CCN(C(=O)COc3ccc(Cl)cc3)CC2)c2nc(-c3ccc(O)cc3)ccc2n1 [Example 415, 2-amino-4-[4-(4-chlorophenoxyacetyl)piperazin-1-yl]-6-(4-hydroxyphenyl)pyrido-[3,2-d]pyrimidine] | 6 nM | 
Nc1nc(N2CCN(C(=O)c3ccco3)CC2)c2nc(-c3ccc4c(c3)OCCO4)ccc2n1 [Example 203, 2-amino-4-[N-(2-furoyl)-piperazin-1-yl]-6-(1,4-benzo-dioxane)-pyrido[3,2-d]pyrimidine] |  | 5700 nM
N#Cc1cccc(-c2ccc3nc(N)nc(N4CCN(C(=O)COc5ccc(Cl)cc5)CC4)c3n2)c1 [Example 414, 2-amino-4-[4-(4-chlorophenoxyacetyl)piperazin-1-yl]-6-(3-cyanophenyl)pyrido-[3,2-d]pyrimidine] | 20 nM | 
COc1ccc(OC)c(-c2ccc3nc(N)nc(N4CCN(C(=O)COc5ccc(Cl)cc5)CC4)c3n2)c1 [Example 506, 2-amino-4-[N-(4-chlorophenoxyacetyl)-piperazin-1-yl]-6-(2,5-dimethoxyphenyl)-pyrido(3,2-d)pyrimidine] | 690 nM | 
C[C@H]1CN(C(=O)OCc2ccccc2)CCN1c1nc(N)nc2ccc(-c3ccc(F)cc3)nc12 [Example 486, (S)-4-[2-amino-6-(4-fluorophenyl)-pyrido[3,2-d]pyrimidin-4-yl]-3-methylpiperazine-1-carboxylic acid benzyl ester] | 800 nM | 
COc1ccc(-c2ccc3nc(N)nc(N4CCN(C(=O)COc5ccc(Cl)cc5)CC4)c3n2)cc1Cl [Example 517] | 12 nM | 
NCC(=O)N1CCN(c2nc(N)nc3ccc(-c4ccc(F)cc4)nc23)CC1 [Example 444, 2-amino-4-[4-(aminoacetyl)-piperazin-1-yl]-6-(4-fluorophenyl)-pyrido[3,2-d]pyrimidine] | 2300 nM | 
COc1ccc(-c2ccc3nc(N)nc(N4CC[C@H](NC(=O)Nc5cccc(C)c5)C4)c3n2)cc1OC [Example 221] |  | 1300 nM
Nc1nc(N2CCN(C(=O)Oc3ccc(Cl)cc3)CC2)c2nc(-c3ccc(F)cc3)ccc2n1 [Example 469, 2-amino-4-[4-(4-chlorophenoxycarbonyl)piperazin-1-yl]-6-(4-fluorophenyl)-pyrido[3,2-d]pyrimidine] | 500 nM | 

Compound | IC50 [1] | IC50 [2]
Cc1cccc(-c2ccc3nc(N)nc(N4CCN(C(=O)COc5ccc(Cl)cc5)CC4)c3n2)c1 [Example 498, 2-amino-4-[N-(4-chlorophenoxyacetyl)-piperazin-1-yl]-6-(3-methyl-phenyl)-pyrido(3,2-d)pyrimidine] | 8 nM | 
CCOc1ccc(-c2ccc3nc(N)nc(N4CCN(C(=O)COc5ccc(Cl)cc5)CC4)c3n2)cc1Cl [Example 493, 2-amino-4-[N-(4-chlorophenoxyacetyl)-piperazin-1-yl]-6-(3-chloro-4-ethoxyphenyl)-pyrido(3,2-d)pyrimidine] | 57 nM | 
NCc1ccc(-c2ccc3nc(N)nc(N4CCN(C(=O)COc5ccc(Cl)cc5)CC4)c3n2)cc1 [Example 447, 2-amino-4-[4-(4-chlorophenoxyacetyl)piperazin-1-yl]-6-[4-(aminomethyl)phenyl]pyrido-[3,2-d]pyrimidine] | 400 nM | 
Cc1cccc(NC(=O)N[C@@H]2CCN(c3nc(N)nc4ccc(-c5ccc(F)cc5)nc34)C2)c1 [Example 579] | > 10000 nM | 
Nc1nc(N2CCN(C(=O)CCOc3ccc(Cl)cc3)CC2)c2nc(-c3ccc(F)cc3)ccc2n1 [Example 473, 2-amino-4-{4-[3-(4-chlorophenoxy)propionyl]-piperazin-1-yl}-6-(4-fluorophenyl)-pyrido[3,2-d]pyrimidine] | 500 nM | 
CNc1nc(N2CCN(C(=O)OC(C)(C)C)CC2)c2nc(-c3ccc(F)cc3)ccc2n1 [Example 569, 2-methylamino-6-(4-fluorophenyl)-4-(4-Boc-piperazino)-pyrido[3,2-d]pyrimidine and 2,4-dimethylamino-6-(4-fluorophenyl)pyrido[3,2-d]pyrimidine] | 5900 nM | 
Nc1nc(N2CCN(C(=O)COc3ccc(Cl)cc3)CC2)c2nc(-c3cc(F)c(F)c(F)c3)ccc2n1 [Example 432, 2-amino-4-[4-(4-chlorophenoxyacetyl)piperazin-1-yl]-6-(3,4,5-trifluorophenyl)-pyrido-[3,2-d]pyrimidine] | 90 nM | 
CS(=O)(=O)Nc1cccc(-c2ccc3nc(N)nc(N4CCN(C(=O)COc5ccc(Cl)cc5)CC4)c3n2)c1 [Example 435, 2-amino-4-[4-(4-chlorophenoxyacetyl)piperazin-1-yl]-6-[N-3-(methanesulfonamidophenyl)]-pyrido-[3,2-d]pyrimidine] | 6 nM | 
CC(C)(C)OC(=O)N1CCC(Nc2nc(N)nc3ccc(-c4ccc(F)cc4)nc23)C1 [Example 577, 2-amino-4-[(S)-1-Boc-amino-pyrrolidin-3-yl]-6-(4-fluorophenyl)-pyrido(3,2-d)pyrimidine] | 4400 nM | 
Cc1cccc(NC(=O)N2CCN(c3nc(N)nc4ccc(-c5ccccc5F)nc34)CC2)c1 [Example 547, 2-amino-4-[(3-methylphenylcarbamoyl)-piperazin-1-yl]-6-(2-fluoro-phenyl)-pyrido[3,2-d]pyrimidine] | 60 nM | 
CC(=O)Nc1nc(-c2nc[nH]n2)c2nc(-c3ccc(Cl)c(Cl)c3)ccc2n1 [Example 145, 2-acetamido-4-(1,2,4-triazolyl)-6-(3,4-dichloro-phenyl)pyrido-[3,2-d]pyrimidine] |  | 5300 nM
COc1ccc(-c2ccc3nc(N)nc(N4CC[C@@H](NC(=O)Nc5cccc(C)c5)C4)c3n2)cc1OC [Example 260] |  | 2100 nM
COc1ccc(-c2ccc3nc(N)nc(N4CCN(C(=O)COc5ccc(Cl)cc5)CC4)c3n2)cc1 [Example 426, 2-amino-4-[4-(4-chlorophenoxyacetyl)piperazin-1-yl]-6-(4-methoxyphenyl)pyrido-[3,2-d]pyrimidine] | 30 nM | 
N#CCOc1ccc(-c2ccc3nc(N)nc(N4CCN(C(=O)COc5ccc(Cl)cc5)CC4)c3n2)cc1 [Example 503, 2-amino-4-[N-(4-chlorophenoxyacetyl)-piperazin-1-yl]-6-(4-cyano-methoxyphenyl)-pyrido(3,2-d)pyrimidine] | 20 nM | 
Nc1nc(N2CCN(C(=O)NCc3ccc(Cl)cc3)CC2)c2nc(-c3ccc(F)cc3)ccc2n1 [Example 189, 2-amino-4-[(N-4-chloro-benzylcarbamoyl)-piperazin-1-yl]-6-(4-fluorophenyl)-pyrido[3,2-d]pyrimidine] |  | 500 nM
Cc1cccc(OCC(=O)N2CCN(c3nc(N)nc4ccc(-c5ccc(F)cc5)nc34)CC2)c1 [Example 384, 2-amino-4-[4-(3-methylphenoxyacetyl)piperazin-1-yl]-6-(4-fluorophenyl)-pyrido[3,2-d]pyrimidine] | 50 nM | 
Nc1nc(N2CCN(C(=O)COc3ccc(Cl)cc3)CC2)c2nc(-c3cccc(F)c3)ccc2n1 [Example 401, 2-amino-4-[4-(4-chlorophenoxyacetyl)piperazin-1-yl]-6-(3-fluorophenyl)pyrido-[3,2-d]pyrimidine] | 300 nM | 
CC(C)(C)OC(=O)N1CCN(c2nc(N3CCCC3)nc3ccc(-c4ccc(F)cc4)nc23)CC1 [Example 567, 6-(4-fluorophenyl)-4-(4-Boc-piperazino)-2-pyrrolidino-pyrido[3,2-d]pyrimidine] | > 10000 nM | 
